The values that follow come from patent US9981983B2, “Thienopyranones as kinase inhibitors” (SignalRx Pharmaceuticals, Inc., priority 2008, dated 2018).

This experiment has as its system PC3 cells. In words: PC3 prostate cancer cell proliferation (WST). The class given is cell-based. Conditions: Homo sapiens, PC-3; 72 hours; read-out: IC50 PC3 Proliferation. How it is done:
PC3 cells were obtained from the American Type Culture Collection (ATCC, Manassas, Va., Cat.# CRL-1435) Two thousand cells from the prostate cancer line PC3 were placed in 50 μL of complete RPMI 1640 media (Invitrogen, Carlsbad, Calif., Cat.#22400-105) with 10% fetal bovine serum (Invitrogen, Carlsbad, Calif., Cat.#10438-026) into each well of 96 well cell culture plates in a hexaplicate sampling pattern. A 50 μL aliquot of test compound (prepared from stock test compounds in DMSO diluted into media) was added to the appropriate well such that the final concentrations of test compound were 200, 40, 8, 1.6, 0.32, 0.064, 0.0128, 0.00256, and 0 μM and the final DMSO concentration was less than or equal to 0.2%.
The plates were incubated for 72 hours 37° C. in an atmosphere of 5% CO2. At the end of this time a 10 μL aliquot of WST solution (Roche Applied Science, Mannheim, Germany) was added into each of the wells. Cells were exposed to the WST solution for 4 hours. A SpectraMax Plus spectrophotometric plate reader (Molecular Devices, Sunnydale, Calif.) was then used to measure the optical density at 450 nm (OD450 nm). Sigmoidal curves were drawn for the dose responses and IC50 values were calculated using the software package GraphPad Prism4 (GraphPad Software, Inc., San Diego, Calif.).
For `COc1cc(-c2csc3c(=O)cc(N4CCOCC4)oc23)ccc1N` [Compound 95], the IC50 came out at 81.9 µM. For `O=c1cc(N2CCOCC2)oc2c(-c3ccc(C(F)(F)F)cc3)csc12` [Compound 20], the IC50 stood at 774 µM. For `O=C(NCc1ccc(Cl)cc1)c1csc2c(=O)cc(N3CCOCC3)oc12` [Compound 88], the IC50 amounted to 22 µM. Consider `O=c1cc(N2CCOCC2)oc2c(-c3cccnc3)csc12` [Compound 3, 5-morpholino-3-(pyridin-3-yl)-7H-thieno[3,2-b]pyran-7-one], for which the IC50 was 10.9 µM. With `O=c1cc(N2CCOCC2)oc2c(-c3cccc(Cl)c3)csc12` [Compound 85, 3-(3-chlorophenyl)-5-morpholino-7H-thieno[3,2-b]pyran-7-one], the IC50 was found to be 3.45 µM. Take `CN(C)c1ccc(C#Cc2csc3c(=O)cc(N4CCOCC4)oc23)cc1` [Compound 37]: the IC50 turned out to be 2.5 µM. In the case of `O=c1cc(N2CCOCC2)oc2c(-c3ccc(Cl)nc3)csc12` [Compound 32], the IC50 is 9.01 µM. In the case of `O=C(Nc1ccc(-c2csc3c(=O)cc(N4CCOCC4)oc23)cc1)c1ccccc1` [Compound 34] it was 2 µM; in that of `O=C(Nc1cccnc1)c1ccc(-c2csc3c(=O)cc(N4CCOCC4)oc23)cc1` [Compound 58], 16.7 µM. For `COc1ccc(-c2csc3c(=O)cc(N4CCOCC4)oc23)cc1` [Compound 8] the value was 1.82 µM; for `COc1cc(C#Cc2csc3c(=O)cc(N4CCOCC4)oc23)cc(OC)c1` [Compound 40], 1.8 µM. For `O=C(NCCN1CCOCC1)c1csc2c(=O)cc(N3CCOCC3)oc12` [Compound 90] the value was 19.9 µM; for `CN(C)c1ccc(C(=O)Nc2cccc(-c3csc4c(=O)cc(N5CCOCC5)oc34)c2)cc1` [Compound 49], 3.18 µM. With `O=c1cc(N2CCOCC2)oc2c(-c3ccc(O)cc3)csc12` [Compound 98], the IC50 was determined as 6.12 µM. Regarding `O=C(NCc1ccccc1)c1csc2c(=O)cc(N3CCOCC3)oc12` [Compound 53], the IC50 was 113 µM. As to `O=c1cc(N2CCOCC2)oc2c(-c3ccoc3)csc12` [Compound 27], the IC50 is 9.26 µM. For the molecule `O=c1cc(C2CCOCC2)oc2c(-c3ccccc3)cccc12` [Compound 67, 8-Phenyl-2-(tetrahydro-2H-pyran-4-yl)-4H-chromen-4-one], the IC50 is 95.8 µM. With `O=c1cc(N2CCOCC2)oc2c(-c3ccc(O)c(Cl)c3)csc12` [Compound 93], the IC50 was 6.14 to 9.43 µM. As for `CN(C)c1ccc(NC(=O)c2cccc(-c3csc4c(=O)cc(N5CCOCC5)oc34)c2)cc1` [Compound 65], the IC50 came to 12.7 µM. Consider `O=C(Nc1ccncc1)c1cccc(-c2csc3c(=O)cc(N4CCOCC4)oc23)c1` [Compound 64], for which the IC50 was found to be 17.9 µM. With `O=C(Nc1ccccn1)c1ccc(-c2csc3c(=O)cc(N4CCOCC4)oc23)cc1` [Compound 61], the IC50 was found to be 5 µM. In the case of `CCN(CC)C(=O)c1csc2c(=O)cc(N3CCOCC3)oc12` [Compound 52] it was 157 µM; in that of `Nc1cccc(C#Cc2csc3c(=O)cc(N4CCOCC4)oc23)c1` [Compound 96], 24.8 µM; in that of `O=C(NCc1ccccc1)c1ccc(-c2csc3c(=O)cc(N4CCOCC4)oc23)cc1` [Compound 50, N-benzyl-4-(5-morpholino-7-oxo-7H-thieno[3,2-b]pyran-3-yl)benzamide], 4.76 µM.

Regarding `O=C(NCCN1CCOCC1)c1cccc(-c2csc3c(=O)cc(N4CCOCC4)oc23)c1` [Compound 42], the IC50 worked out at 7.84 µM. On to `CNc1ccc(-c2csc3c(=O)cc(N4CCOCC4)oc23)cc1` [Compound 41], for which the IC50 is 2.07 µM. Take `O=c1cc(N2CCOCC2)oc2c(-c3cccs3)csc12` [Compound 14]: the IC50 is 4.36 µM. Regarding `O=c1cc(N2CCOCC2)oc2c(-c3cc4ccccc4[nH]3)csc12` [Compound 12], the IC50 was found to be 8.55 µM.

For `O=C(Nc1cccc(-c2csc3c(=O)cc(N4CCOCC4)oc23)c1)c1cccnc1` [Compound 46], the IC50 came to 62.1 µM. For `CN(C(=O)OC(C)(C)C)c1ccc(-c2csc3c(=O)cc(N4CCOCC4)oc23)cc1` [Compound 36] the value was 2.69 µM; for `S=c1cc(N2CCOCC2)oc2c(-c3ccccc3)cccc12` [Compound 68, 2-morpholino-8-phenyl-4H-chromene-4-thione], 34.8 µM. As to `O=c1cc(N2CCOCC2)oc2c(Cc3ccccc3)csc12` [Compound 1], the IC50 was 20.2 µM. In the case of `O=c1cc(N2CCOCC2)oc2c(C#Cc3cccc(F)c3)csc12` [Compound 39] it was 3.31 µM; in that of `O=c1cc(N2CCOCC2)oc2c(-c3ccsc3)csc12` [Compound 26], 5.6 µM; in that of `Cc1ccc(-c2csc3c(=O)cc(N4CCOCC4)oc23)cc1` [Compound 15], 4.48 µM. Consider `O=c1cc(N2CCOCC2)oc2c(C#Cc3ccccc3)csc12` [Compound 31, 5-morpholino-3-(phenylethynyl)-7H-thieno[3,2-b]pyran-7-one], for which the IC50 was found to be 3.69 µM. Consider `O=c1cc(N2CCOCC2)oc2c(-c3ccco3)csc12` [Compound 4], for which the IC50 came out at 5.9 µM. Regarding `O=c1cc(N2CCOCC2)oc2c(-c3ccncc3)csc12` [Compound 2], the IC50 is 18.5 µM.

On to `Cc1cccc(-c2csc3c(=O)cc(N4CCOCC4)oc23)c1` [Compound 16], for which the IC50 is 6.03 µM.

As for `O=C(Nc1ccncc1)c1ccc(-c2csc3c(=O)cc(N4CCOCC4)oc23)cc1` [Compound 59], the IC50 worked out at 17.5 µM. Turning to `CN1CCOc2cc(-c3csc4c(=O)cc(N5CCOCC5)oc34)ccc21` [Compound 22], the IC50 turned out to be 1.05 µM. For the molecule `O=c1cc(N2CCOCC2)oc2c(-c3ccc4[nH]ccc4c3)csc12` [Compound 19], the IC50 turned out to be 8.13 µM. Regarding `COC(=O)c1ccc(-c2csc3c(=O)cc(N4CCOCC4)oc23)cc1` [Compound 44], the IC50 turned out to be 4.39 µM. In the case of `O=C(Nc1ccccn1)c1cccc(-c2csc3c(=O)cc(N4CCOCC4)oc23)c1` [Compound 66], the IC50 amounted to 6.91 µM. For the molecule `COC(=O)c1scc(-c2csc3c(=O)cc(N4CCOCC4)oc23)c1O` [Compound 21, methyl 3-hydroxy-4-(5-morpholino-7-oxo-7H-thieno[3,2-b]pyran-3-yl)thiophene-2-carboxylate], the IC50 came to 34.8 µM. Consider `O=c1cc(N2CCOCC2)oc2c(-c3ccc4c(c3)OCO4)csc12` [Compound 7], for which the IC50 stood at 1.74 µM.

As to `O=C(O)c1ccc(-c2csc3c(=O)cc(N4CCOCC4)oc23)cc1` [Compound 100], the IC50 is 129 µM.

In the case of `O=c1cc(N2CCOCC2)oc2c(-c3ccc(Cl)c(Cl)c3)csc12` [Compound 18], the IC50 is 37.6 µM. For `O=c1cc(N2CCOCC2)oc2c(C#Cc3ccsc3)csc12` [Compound 23], the IC50 amounted to 7.35 µM.

`COc1cccc(-c2csc3c(=O)cc(N4CCOCC4)oc23)c1` [Compound 29]: the IC50 worked out at 4.76 µM. In the case of `O=C(NCc1ccccc1)c1cccc(-c2csc3c(=O)cc(N4CCOCC4)oc23)c1` [Compound 63] it was 7.84 µM; in that of `O=c1cc(N2CCOCC2)oc2c(-c3cccc(O)c3)csc12` [Compound 99], 16.6 µM.

With `O=c1cc(N2CCOCC2)oc2c(C#CCO)csc12` [Compound 24], the IC50 is 28.2 µM.

As to `COC(=O)c1cccc(-c2csc3c(=O)cc(N4CCOCC4)oc23)c1` [Compound 45], the IC50 is 4.67 µM.

For the molecule `O=C(Nc1ccccc1)c1csc2c(=O)cc(N3CCOCC3)oc12` [Compound 51, 5-morpholino-7-oxo-N-phenyl-7H-thieno[3,2-b]pyran-3-carboxamide], the IC50 is 23.8 µM.

As to `O=c1cc(N2CCOCC2)oc2c(-c3ccc(Cl)cc3)csc12` [Compound 17, 3-(4-chlorophenyl)-5-morpholino-7H-thieno[3,2-b]pyran-7-one], the IC50 came out at 29 µM. In the case of `O=c1cc(N2CCOCC2)oc2c(-c3cccc(C(F)(F)F)c3)csc12` [Compound 92] it was 6.28 µM. In the case of `O=c1cc(N2CCOCC2)oc2c(-c3ccc(Br)cc3)csc12` [Compound 101] it was 21.8 µM.

Turning to `O=c1cc(N2CCOCC2)oc2c(-c3ccc4cc[nH]c4c3)csc12` [Compound 35], the IC50 lay in the range of 2.7 to 5.59 µM.
